Laboratory results taken from patent US12576156B2, “Compound comprising self-immolative group and ligand-drug conjugate comprising same” (priority 2022, dated 2026).
Numbered stars: 1 amine (or outer) side, 2 acyl side, 3 side chain; on linkers, the order of the positions; unused ones are H or OH. Square brackets hold non-standard residues; d marks the D form. Peptide text beside a SMILES is read from it. * marks the point of attachment. ξ: configuration not given here. X1 = O=C(O)CCCc1cc2c(O[C@@H]3O[C@H](CO)[C@H](O)[C@H](O)[C@H]3O)ccc(COC(=O)*)c2o1; X3 = O=C(O)c1cc2c(O[C@@H]3O[C@H](CO)[C@H](O)[C@H](O)[C@H]3O)ccc(COC(=O)*)c2[se]1; X2 = O=C(O)CCc1cc2c(O[C@@H]3O[C@H](CO)[C@H](O)[C@H](O)[C@H]3O)ccc(COC(=O)*)c2s1; X4 = O=C(O)c1cc2c(O[C@@H]3O[C@H](CO)[C@H](O)[C@H](O)[C@H]3O)ccc(COC(=O)*)c2o1; Dil(5ξ) = CCC(C)[C@@H]([C@@H](CC(=O)[*:2])OC)N(C)[*:1]; Dolaproine = CO[C@@H]([C@@H]1CCCN1)[C@@H](C)C(=O)O; NMeV = CN[C@H](C(=O)O)C(C)C; ξF = NC(Cc1ccccc1)C(=O)O

What was measured:
[1] = Chemical stability in PBS buffer solution (pH 7.4); format: physicochemical; settings: 37° C., read-out: Chemical stability t1/2
Method: The compounds of the present invention (A-15, A-16, A-19, A-21 to A-25, A-28, A-29, A-36 and A-69) were each dissolved in DMSO to a concentration of 10 mM and then mixed with a PBS buffer solution (pH 7.4) to prepare as a solution having a concentration of 500 μM (5% DMSO). MPS, used as a standard material, was also prepared as a solution having a concentration of 500 μM in a PBS buffer solution. 420 μL of a PBS buffer solution and […] of each of 500 μM compounds of the present invention and MPS were mixed to prepare a total of 700 μL of reaction solution. The reaction of the mixed solution was initiated in a constant temperature incubator at 37° C. The reaction solution was aliquoted in an amount of 70 μL at 0 minutes before the reaction and at certain times after the reaction, and the remaining compounds of the present invention or MPS or the liberated MMAF or MMAE were quantitatively analyzed using the HPLC method. […] In addition, the remaining amount of Compound A-69 in a PBS buffer solution (pH 7.4) according to the incubation time is shown in FIG. 5.

[2] = Mouse plasma stability (Method 1); format: in vitro ADME; settings: Method 1 (mouse plasma), 37° C.; read-out: Plasma stability t1/2
Method: Method 1: Mouse Plasma Stability
(§1) The compounds of the present invention (A-16, A-22, A-25, A-36, A-69) and MPS, used as a standard material, were each dissolved in DMSO and a PBS buffer solution to a concentration of 30 mM, and then mixed in mouse plasma (Biochemed, 029-APSC-PMG) to a final concentration of 300 μM (final 1.0% DMSO) and 600 μM of the compounds and MPS, respectively. The reaction of the mixed solution in plasma was initiated in a constant temperature incubator at 37° C. Before the reaction and on certain days after the reaction, the above samples were aliquoted in an amount of 100 μL, and 200 μL of acetonitrile (ACN, Sigma, SA-271004-1L) was added to terminate the reaction, mixed, and then vortexed for about 1 minute, and then centrifuged (Beckman, B30150) at 4° C. for 15 minutes at 14,000 rpm to precipitate plasma proteins. Each supernatant obtained by centrifugation was collected and quantitatively analyzed using the HPLC method.
(§2) The results of measuring the plasma half-life of the compounds of the present invention using Methods 1 to 4 above are shown in Table 3.

[3] = Human plasma stability (Method 2); format: in vitro ADME; settings: Method 2 (human plasma), 37° C.; read-out: Plasma stability t1/2
Method: Method 2: Human Plasma Stability
as §1, with “(A-19,” for “(A-16,”, “human” for “mouse”, “752PR-SC-PMG)” for “029-APSC-PMG)”, “ACN” for “acetonitrile (ACN, Sigma, SA-271004-1L)”, “centrifuged” for “centrifuged (Beckman, B30150)”
as §2

[4] = Rat plasma stability (Method 3); format: in vitro ADME; settings: Method 3 (rat plasma), 37° C.; read-out: Plasma stability t1/2
Method: Method 3: Rat Plasma Stability
as §1, with “(A-22,” for “(A-16, A-22, A-25, A-36,”, “rat” for “mouse”, “031-APSC-PMG)” for “029-APSC-PMG)”, “ACN” for “acetonitrile (ACN, Sigma, SA-271004-1L)”, “centrifuged” for “centrifuged (Beckman, B30150)”
as §2

[5] = Beagle dog plasma stability (Method 4); format: in vitro ADME; settings: Method 4 (beagle dog plasma), 37° C.; read-out: Plasma stability t1/2
Method: Method 4: Beagle Dog Plasma Stability
as §1, with “(A-22,” for “(A-16, A-22, A-25, A-36,”, “beagle dog” for “mouse”, “014-APSC-PMG)” for “029-APSC-PMG)”, “ACN” for “acetonitrile (ACN, Sigma, SA-271004-1L)”, “centrifuged” for “centrifuged (Beckman, B30150)”
as §2

CCC(C)[C@@H]([C@@H](CC(=O)N1CCC[C@H]1[C@H](OC)[C@@H](C)C(=O)NC(Cc1ccccc1)C(=O)O)OC)N(C)C(=O)[C@@H](NC(=O)[C@H](C(C)C)N(C)C(=O)OCc1ccc(O[C@@H]2O[C@H](CO)[C@H](O)[C@H](O)[C@H]2O)c2cc(CCC(=O)NCCOCCOCCOCCN=[N+]=[N-])sc12)C(C)C (some centres unmarked) [Compound A-15]
half-life at 100 µM [1]: > 7 days

CCC(C)[C@@H]([C@@H](CC(=O)N1CCC[C@H]1[C@H](OC)[C@@H](C)C(=O)NC(Cc1ccccc1)C(=O)O)OC)N(C)C(=O)[C@@H](NC(=O)[C@H](C(C)C)N(C)C(=O)OCc1ccc(O[C@@H]2O[C@H](CO)[C@H](O)[C@H](O)[C@H]2O)c2cc(CCC(=O)O)sc12)C(C)C (some centres unmarked) [Compound A-16] (X2-[NMeV]V[Dil(5ξ)][Dolaproine][ξF]-OH)
half-life at 300 µM [2]: > 7 days
half-life at 100 µM [1]: > 7 days

CCC(C)[C@@H]([C@@H](CC(=O)N1CCC[C@H]1[C@H](OC)[C@@H](C)C(=O)NC(Cc1ccccc1)C(=O)O)OC)N(C)C(=O)[C@@H](NC(=O)[C@H](C(C)C)N(C)C(=O)OCc1ccc(O[C@@H]2O[C@H](CO)[C@H](O)[C@H](O)[C@H]2O)c2cc(Cn3cc(COCCOCCOCCOC)nn3)sc12)C(C)C (some centres unmarked) [Compound A-19]
half-life at 100 µM [1]: > 7 days
half-life at 300 µM [3]: > 7 days

C#CCOCCOCCOCCOCC(=O)NCc1cc2c(O[C@@H]3O[C@H](CO)[C@H](O)[C@H](O)[C@H]3O)ccc(COC(=O)N(C)[C@H](C(=O)N[C@H](C(=O)N(C)[C@@H](C(C)CC)[C@@H](CC(=O)N3CCC[C@H]3[C@H](OC)[C@@H](C)C(=O)NC(Cc3ccccc3)C(=O)O)OC)C(C)C)C(C)C)c2s1 (some centres unmarked) [Compound A-21]
half-life at 100 µM [1]: > 7 days

CCC(C)[C@@H]([C@@H](CC(=O)N1CCC[C@H]1[C@H](OC)[C@@H](C)C(=O)NC(Cc1ccccc1)C(=O)O)OC)N(C)C(=O)[C@@H](NC(=O)[C@H](C(C)C)N(C)C(=O)OCc1ccc(O[C@@H]2O[C@H](CO)[C@H](O)[C@H](O)[C@H]2O)c2cc(CCCC(=O)O)oc12)C(C)C (some centres unmarked) [Compound A-22] (X1-[NMeV]V[Dil(5ξ)][Dolaproine][ξF]-OH)
half-life at 300 µM [2]: > 7 days
half-life at 100 µM [1]: > 7 days
half-life at 300 µM [4]: > 7 days
half-life at 300 µM [5]: > 7 days
half-life at 300 µM [3]: > 7 days

CCC(C)[C@@H]([C@@H](CC(=O)N1CCC[C@H]1[C@H](OC)[C@@H](C)C(=O)NC(Cc1ccccc1)C(=O)O)OC)N(C)C(=O)[C@@H](NC(=O)[C@H](C(C)C)N(C)C(=O)OCc1ccc(O[C@@H]2O[C@H](CO)[C@H](O)[C@H](O)[C@H]2O)c2cc(CCCC(=O)NCCOCCOCCOCCN=[N+]=[N-])oc12)C(C)C (some centres unmarked) [Compound A-23]
half-life at 100 µM [1]: > 7 days

CCC(C)[C@@H]([C@@H](CC(=O)N1CCC[C@H]1[C@H](OC)[C@@H](C)C(=O)NC(Cc1ccccc1)C(=O)O)OC)N(C)C(=O)[C@@H](NC(=O)[C@H](C(C)C)N(C)C(=O)OCc1ccc(O[C@@H]2O[C@H](CO)[C@H](O)[C@H](O)[C@H]2O)c2cc(C(=O)O)oc12)C(C)C (some centres unmarked) [Compound A-24] (X4-[NMeV]V[Dil(5ξ)][Dolaproine][ξF]-OH)
half-life at 100 µM [1]: > 7 days

CC[C@H](C)[C@@H]([C@@H](CC(=O)N1CCC[C@H]1[C@H](OC)[C@@H](C)C(=O)N[C@H](C)[C@@H](O)c1ccccc1)OC)N(C)C(=O)[C@@H](NC(=O)[C@H](C(C)C)N(C)C(=O)OCc1ccc(O[C@@H]2O[C@H](CO)[C@H](O)[C@H](O)[C@H]2O)c2cc(CCC(=O)NCCOCCOCCOCCN=[N+]=[N-])oc12)C(C)C [Compound A-25]
half-life at 300 µM [2]: > 7 days
half-life at 100 µM [1]: > 7 days
half-life at 300 µM [3]: > 7 days

C#CCOCCOCCOCCOCC(=O)NCc1cc2c(O[C@@H]3O[C@H](CO)[C@H](O)[C@H](O)[C@H]3O)ccc(COC(=O)N(C)[C@H](C(=O)N[C@H](C(=O)N(C)[C@@H](C(C)CC)[C@@H](CC(=O)N3CCC[C@H]3[C@H](OC)[C@@H](C)C(=O)NC(Cc3ccccc3)C(=O)O)OC)C(C)C)C(C)C)c2o1 (some centres unmarked) [Compound A-28]
half-life at 100 µM [1]: > 7 days

CCC(C)[C@@H]([C@@H](CC(=O)N1CCC[C@H]1[C@H](OC)[C@@H](C)C(=O)NC(Cc1ccccc1)C(=O)O)OC)N(C)C(=O)[C@@H](NC(=O)[C@H](C(C)C)N(C)C(=O)OCc1ccc(O[C@@H]2O[C@H](CO)[C@H](O)[C@H](O)[C@H]2O)c2cc(C(=O)O)[se]c12)C(C)C (some centres unmarked) [Compound A-29] (X3-[NMeV]V[Dil(5ξ)][Dolaproine][ξF]-OH)
half-life at 100 µM [1]: > 7 days

CC[C@H](C)[C@@H]([C@@H](CC(=O)N1CCC[C@H]1[C@H](OC)[C@@H](C)C(=O)N[C@H](C)[C@@H](O)c1ccccc1)OC)N(C)C(=O)[C@@H](NC(=O)[C@H](C(C)C)N(C)C(=O)OCc1ccc(O[C@@H]2O[C@H](C(=O)O)[C@@H](O)[C@H](O)[C@H]2O)c2cc(Cn3cc(COCCOCCOCCOC)nn3)[se]c12)C(C)C [Compound A-69]
half-life at 300 µM [2]: > 7 days
half-life at 100 µM [1]: > 7 days
half-life at 300 µM [4]: > 7 days
half-life at 300 µM [5]: > 7 days
half-life at 300 µM [3]: > 7 days
